Where two headings read alike, the source gives them in different places.
Tests used:
Format in all cases: physicochemical
[1] = Slurries in 2-propanol at room temperature, 50° C. and 80° C.; details: form by XRD
Protocol: 0.050 g of Form I were suspended in 4 ml of solvent and stirred at room temperature. for 1 week (7 days). The sample was filtered and analyzed by X-ray diffraction.
0.040 g of Form I+0.040 g of Form II were suspended in 4 ml of solvent and stirred at room temperature for 1 week (7 days). The sample was filtered and analyzed by X-ray diffraction experiments.
0.050 g of Form II were suspended in 4 ml of solvent and stirred at room temperature for 1 week (7 days). The sample was filtered and analyzed by X-ray diffraction experiments.
0.050 g of Form I were suspended in 4 ml of solvent and stirred at 50° C. for 1 Week (7 days). The sample was filtered and analyzed by X-ray diffraction experiments.
0.040 g of Form I+0.040 g of Form II were suspended in 4 ml of solvent and stirred at 50° C. for 1 week (7 days). The sample was filtered and analyzed by X-ray diffraction experiments.
Form I+Form II were suspended in solvent and stirred at 80° C. for 14 hours. The sample was filtered and analyzed by X-ray diffraction experiments. […] Slurry in 2-propanol at 80° C. is an atypical experiment because if we consider the boiling point of the solvent, it could be defined as a combination between a slurry and precipitation experiment. Form I was obtained during the precipitation from supersaturated solution by 2-propanol. However the high temperature and the reflux produce the energetic conditions needed by the stable crystal form (Form II) to convert to the metastable crystal form (Form I).

[2] = Stability tests on bupropion hydrobromide polymorphs in humidity chamber (XRD pattern); details: 40° C., 85% R.H., open sample-holder
Protocol: Stability tests were performed on bupropion hydrobromide Form I, Form II, Form III, Form IV, Form V and Form VI. The powders were stored in a controlled atmosphere (85% R.H.) at 40° C. Form I and Form II were stored for 7 and 30 days respectively, while the other forms were stored only for 30 days. The sample was positioned on the sample-holder which was introduced, without any cover, into the humidity chamber at 40° C. The layer of the sample on the sample-holder was about 0.5 cm.
In addition, stability tests were performed on bupropion hydrobromide Form VII.

[3] = Forced degradation studies of bupropion hydrobromide and bupropion hydrochloride in closed bottles; details: about 40 degrees C., about 75% relative humidity
Protocol: Further stability tests were performed by directly comparing bupropion hydrobromide and bupropion hydrochloride salts in forced degradation studies. […] At specified times, the material in the bottles was analyzed for the presence of degradation products and % potency (% assay).

[4] = Comparison of the stability of several bupropion salts in open and closed vials at about 40 degrees C. and about 75% relative humidity (HPLC); details: about 40 degrees C., about 75% relative humidity, various periods of time
Protocol: A comparison of the stability of several bupropion salts, including the hydrobromide, hydrochloride, maleate, tosylate, fumarate, succinate, tartrate and citrate salts, was performed by placing these salts in both open and closed vials in a stability chamber kept at about 40 degrees C. and about 75% relative humidity for various periods of time (e.g. 10 days, 13 days, 14 days, 20 days, 24 days, or 32 days). The stability of the salts was evaluated based on the formation of the main degradation products as determined by HPLC analysis and the % potency (or assay) of the API, after specific time periods in the stability chamber. The effect of the addition of solvents, such as water, ethanol and isopropyl alcohol, was also studied.

[5] = Forced degradation studies of the API's in the presence of standard excipients; details: with standard excipients; about 24 and about 48 hours at about 55° C., about 55° C. and 100% relative humidity, about 105° C.
Protocol: Forced degradation studies were also performed on bupropion hydrobromide and bupropion hydrochloride API's in the presence of standard excipients used in pharmaceutical formulations.

[6] = Qualitative solubility screening; details: thermodynamic from solid, 50 mg in 4 mL, read-out: Solubility at Room Temp (RT)
Protocol: Bupropion hydrobromide (50 mg) was introduced in 4 mL of solvent under stirring for about 1 hour at room temperature. See Table 41 for the qualitative solubility data.

[7] = Release of bupropion base from the salt
Protocol: It was previously observed that when 150 mg of bupropion HCl was tested for its release of bupropion, the base value that was released was 130 mg. However, when 150 mg of bupropion HBr was tested, the base value released was only 112 mg. Thus, the amount of bupropion HBr had to be increased in order to increase the base value from 112 mg to 130 mg, which was the target.

With Br.CC(NC(C)(C)C)C(=O)c1cccc(Cl)c1 (single isomer, unassigned) [Form I] the “Slurry result in 2-propanol” value ([1]; 50° C., 1 week (7 days)) was “converted to Form II”, the “Slurry result in 2-propanol” value ([1]; mixture Form I+Form II, 80° C., 14 hours) was “remained as Form I” and the “Slurry result in 2-propanol” value ([1]; room temperature, 1 week (7 days)) was “converted to Form II”. The “XRD pattern / crystal form after storage” value ([2]; 7 days) was “did not show modification” and the “XRD pattern / crystal form after storage” value ([2]; 30 days) was “did not show modification”.
For Br.CC(NC(C)(C)C)C(=O)c1cccc(Cl)c1 (centres unmarked) [Bupropion hydrobromide, 3′-chloro-2-t-butylamino-1-propiophenone hydrobromide], the “% potency compared to the bupropion hydrochloride salt” value [3] was “generally higher”, the “amount of impurities compared to the bupropion hydrochloride salt” value [3] was “generally lower” and the “amount of degradation products compared with other bupropion salts” value [4] was “least amount of degradation products”. For the same compound, the “amount of degradation (bupropion degradation impurities) versus bupropion hydrochloride” value [5] was “lowest amount of degradation”, the solubility ([6]; organic solvent or mixture, solvent 1,2-Dimethoxy Ethane) was < 12.5 mg/mL and the solubility ([6]; organic solvent or mixture, solvent 1-Butanol) was > 12.5 mg/mL. The solubility ([6]; organic solvent or mixture, solvent 1-Methyl-2-Pyrrolidone) was > 12.5 mg/mL, the solubility ([6]; organic solvent or mixture, solvent 1-Octanol) was < 12.5 mg/mL and the solubility ([6]; organic solvent or mixture, solvent 1-Propanol) was > 12.5 mg/mL. For the same compound, the solubility ([6]; organic solvent or mixture, solvent 2-Methoxy Ethanol) was > 12.5 mg/mL, the solubility ([6]; organic solvent or mixture, solvent 2-Methyl-1-Propanol) was > 12.5 mg/mL and the solubility ([6]; organic solvent or mixture, solvent 2-Propanol) was > 12.5 mg/mL. The solubility ([6]; organic solvent or mixture, solvent 3-Pentanone) was < 12.5 mg/mL, the solubility ([6]; organic solvent or mixture, solvent 4-Methyl-2-Pentanone) was < 12.5 mg/mL and the solubility ([6]; organic solvent or mixture, solvent (±)2-Butanol) was < 12.5 mg/mL. For the same compound, the solubility ([6]; organic solvent or mixture, solvent Acetone) was < 12.5 mg/mL, the solubility ([6]; organic solvent or mixture, solvent Acetonitrile) was > 12.5 mg/mL and the solubility ([6]; organic solvent or mixture, solvent Benzonitrile) was < 12.5 mg/mL. For the same compound, the solubility ([6]; organic solvent or mixture, solvent Benzyl Alcohol) was > 12.5 mg/mL, the solubility ([6]; organic solvent or mixture, solvent Chloroform) was > 12.5 mg/mL and the solubility ([6]; organic solvent or mixture, solvent Cyclohexane) was < 12.5 mg/mL. The solubility ([6]; organic solvent or mixture, solvent Dichloromethane) was > 12.5 mg/mL, the solubility ([6]; organic solvent or mixture, solvent Diethyl Carbonate) was < 12.5 mg/mL and the solubility ([6]; organic solvent or mixture, solvent Diethyl Ether) was < 12.5 mg/mL. The solubility ([6]; organic solvent or mixture, solvent Dimethil sulfoxyde) was > 12.5 mg/mL, the solubility ([6]; organic solvent or mixture, solvent Dimethyl Formamide) was > 12.5 mg/mL and the solubility ([6]; organic solvent or mixture, solvent Dioxane) was < 12.5 mg/mL. The solubility ([6]; organic solvent or mixture, solvent Ethanol) was > 12.5 mg/mL, the solubility ([6]; organic solvent or mixture, solvent Ethyl Acetate) was < 12.5 mg/mL and the solubility ([6]; organic solvent or mixture, solvent Ethyl Benzoate) was < 12.5 mg/mL. The solubility ([6]; organic solvent or mixture, solvent Ethyl Formate) was < 12.5 mg/mL, the solubility ([6]; organic solvent or mixture, solvent Iso-Propyl-Ether) was < 12.5 mg/mL and the solubility ([6]; organic solvent or mixture, solvent Isopropyl Acetate) was < 12.5 mg/mL. The solubility ([6]; organic solvent or mixture, solvent Mesitylene) was < 12.5 mg/mL, the solubility ([6]; organic solvent or mixture, solvent Methanol) was > 12.5 mg/mL and the solubility ([6]; organic solvent or mixture, solvent Methyl Benzoate) was < 12.5 mg/mL. For the same compound, the solubility ([6]; organic solvent or mixture, solvent Methyl Ethyl Ketone) was < 12.5 mg/mL, the solubility ([6]; organic solvent or mixture, solvent Methyl-Cyclohexan) was < 12.5 mg/mL and the solubility ([6]; organic solvent or mixture, solvent Nitrobenezene) was < 12.5 mg/mL. The solubility ([6]; organic solvent or mixture, solvent Nitromethane) was > 12.5 mg/mL, the solubility ([6]; organic solvent or mixture, solvent Propyl Acetate) was < 12.5 mg/mL and the solubility ([6]; organic solvent or mixture, solvent Tert-Butanol) was < 12.5 mg/mL. For the same compound, the solubility ([6]; organic solvent or mixture, solvent Tetrahydrofuran) was < 12.5 mg/mL, the solubility ([6]; organic solvent or mixture, solvent Toluene) was < 12.5 mg/mL and the solubility ([6]; organic solvent or mixture, solvent n-Hexan) was < 12.5 mg/mL. The solubility ([6]; organic solvent or mixture, solvent n-Hexane) was < 12.5 mg/mL, the solubility ([6]; organic solvent or mixture, solvent p-Xylene) was < 12.5 mg/mL and the solubility ([6]; organic solvent or mixture, solvent t-Butyl Methyl Ether) was < 12.5 mg/mL. For the same compound, the solubility ([6]; water, solvent Water) was > 12.5 mg/mL, the “base value that was released” value ([7]; 150 mg of the salt tested) was 112 mg and the “base value that was released” value ([7]; 174 mg of the salt tested) was 130 mg.

Reference: patent US8604085B2, “Bupropion hydrobromide polymorphs” (Valeant International Bermuda, priority 2008, dated 2013)
